Data on 14 compounds can be found in PubChem BioAssay (NCI).

Common to all, as to test: growth of human tumour cells (NCI), 48 h
The test system of experiment [1] is HCC-2998 colon.
Experiment [2] deals with KM12 colon.
In experiment [3] the test system is SN12C renal.
Experiment [4] concerns UACC-62 melanoma.
Experiment [5] deals with SK-MEL-28 melanoma.
Experiment [6] concerns RPMI-8226 leukemia.
In experiment [7] the test system is OVCAR-8 ovarian.
For experiment [8], the system named is SNB-75 CNS.
For experiment [9], the system named is SW-620 colon.
For experiment [10], the system named is NCI-H226 lung.

SMILES strings stand for the structures. Several values for one entry are separate records, joined by “and”; a condition that tells them apart may be missing. Identical values can stand only once.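 Cultured in 96-well plates, cells were exposed to test compound for 48 hours across five concentrations. Abbreviation: GI50, concentration required for 50% inhibition of growth. The concentration for full growth arrest is given as TGI.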

Consider `[N-]=[N+]=C1N=CN=C1c1ncn[nH]1`, for which the TGI in experiment [1] was over 100 µM; in experiment [2], over 100 µM; in [3], 93.9 µM; in experiment [4] it was 56.3 µM; in [5], over 100 µM; in [6], 38.8 µM. Also, the TGI in experiment [7], in experiment [8], in experiment [9] and in experiment [10] was over 100 µM in each case.
With `C[Si](C)(OCCS(=O)(=O)O)C1(Cc2cccc3ccccc23)S(=O)(=O)OCCOS1(=O)=O`, the TGI amounted to 30.7 µM in [1]; 29.5 µM in experiment [2]; 41.3 µM in [3]; 43 µM in experiment [4]; 37 µM in experiment [5]; 57 µM in experiment [6]. The TGI in [7] was 52.4 µM; in experiment [8], 55.1 µM; in experiment [9], 33.7 µM; in experiment [10] it was 45.8 µM.
As for `CCOP(=O)(OCC)/C(C#N)=C/c1cn(C)cn1`, the TGI in [1], in [2], in [3], in experiment [4], in experiment [5] and in experiment [7] was over 100 µM each time. Besides, the TGI in [8], in experiment [9] and in [10] was over 100 µM each time.
`N[C@H](C(=O)O)[C@H]1ON=C(Cl)[C@@H]1O`: the GI50 in [1] was 5.62 µM; in [2], 2.23 µM; in [3], 13.6 µM; in experiment [4] it was 17.5 µM; in [5], 28.4 µM; in [6], 10.9 µM. Besides, the results for the GI50 in experiment [7], in experiment [9] and in experiment [10] were 12.2 µM, 8.09 µM and 61.8 µM, respectively. Also, the TGI was over 173 µM in experiment [1]; over 550 µM in experiment [2]; over 550 µM in experiment [3]; over 550 µM in [4]; over 550 µM in experiment [5]; > 97.1 µM and 233 µM in [6]. Further, the TGI in experiment [7] is over 550 µM; in [8] it was over 364 µM; in experiment [9], over 550 µM; in experiment [10] it was over 550 µM.
`C[C@]12CCC(=O)C=C1CC[C@@H]1[C@@H]2[C@@H](O)C[C@@]2(C)[C@H]1CC[C@]2(O)C(=O)COC(=O)COCC(=O)O`: the TGI in experiment [1], in [2], in [3], in experiment [4], in [5] and in [6] was over 100 µM in each case. The TGI in experiment [7], in [8], in [9] and in experiment [10] was over 100 µM in each case.
For `O=S(=O)(CCBr)CCBr`, the TGI in [1] came to 18.1 µM; in experiment [2], 30 µM; in [3], 21.8 µM; in experiment [4], 11 µM; in experiment [5], 8.61 µM; in experiment [6], 12.1 µM. Moreover, the TGI worked out at 5.68 µM in experiment [7], 25.5 µM in [8], 5.74 µM in [9] and 54.9 µM in experiment [10].
In the case of `O=C(Nc1cccc(-n2ccc3c(NC(=O)c4ccccc4)nccc32)c1)Nc1cc(C(F)(F)F)cc(C(F)(F)F)c1`, the GI50 was 2.1 µM in experiment [1]; 1.53 µM in experiment [2]; 2.05 µM in [3]; 2 µM in [4]; 2.14 µM in experiment [5]; 1.13 µM in [6]. For the same compound, the GI50 is 1.65 µM in experiment [7], 1.09 µM in experiment [8], 2.06 µM in experiment [9] and 1.66 µM in experiment [10]. Moreover, the TGI was over 50 µM in experiment [1]; 4.7 µM in experiment [2]; 29.4 µM in [3]; 13 µM in experiment [4]; over 50 µM in [5]; 2.85 µM in experiment [6]. Further, the TGI in experiment [7] was 5.14 µM; in experiment [8], 3.89 µM; in experiment [9] it was over 50 µM; in experiment [10], 16.4 µM.
For the compound `COc1ccc(-n2cnnc2-c2nsc3ccccc23)cc1`, the TGI in experiment [1], in [2], in experiment [3], in experiment [4], in experiment [5] and in [6] was over 100 µM each time. Also, the TGI in [7] is over 100 µM; in [8], 59.2 µM; in experiment [9], over 100 µM.
On to `O=C(O)c1cc2ccccc2c(N=Nc2ccc(S(=O)(=O)Nc3nccs3)cc2)c1O`, for which the TGI in experiment [1], in experiment [2], in experiment [3], in experiment [4], in experiment [5] and in [6] was over 100 µM in each case. For the same compound, the TGI in experiment [7], in experiment [8], in experiment [9] and in experiment [10] was over 100 µM throughout.
As to `Nc1nc(SCc2ccc([N+](=O)[O-])cc2)nc2c1ncn2C1OC(COP(=O)(O)O)C(O)C1O` (centres undefined), the TGI in experiment [1], in experiment [2], in experiment [3], in experiment [4], in experiment [5] and in experiment [7] was over 100 µM throughout. Moreover, the TGI in experiment [8], in experiment [9] and in [10] was over 100 µM each time.
For `Cc1ccc(N=N/C(=N\NC(=O)c2ccc(C)cc2)c2ccc(N(CCC#N)CCC#N)cc2C)cc1`, the TGI in [1] is over 100 µM; in [2], 30.3 µM; in experiment [4] it was 56.7 µM; in experiment [5], 52.5 µM; in experiment [6] it was over 100 µM; in experiment [7], over 100 µM. In addition, the TGI in experiment [8], in [9] and in experiment [10] was over 100 µM in each case.
On to `CC(C)OP(=O)(OC(C)C)/C(I)=N/Nc1ccc([N+](=O)[O-])cc1`, for which the TGI in experiment [1], in [2], in experiment [3], in experiment [4], in experiment [5] and in experiment [6] was over 100 µM in each case. Besides, the TGI in experiment [7], in experiment [8] and in [9] was over 100 µM throughout.
Regarding `CC(NC(=O)C(C)NC(=O)C(N)CCP(C)(=O)O)C(=O)O` (centres undefined), the TGI in experiment [1], in experiment [2], in experiment [3], in experiment [4], in [5] and in experiment [6] was over 100 µM each time. The TGI in experiment [7], in experiment [8], in experiment [9] and in experiment [10] was over 100 µM throughout.
In the case of `CC1=Nc2nc(Cl)cn2C(=O)C1(Cl)Cl`, the TGI in experiment [1], in experiment [2], in experiment [3], in experiment [4], in [5] and in experiment [6] was over 10 µM each time. The TGI in [7], in experiment [8], in [9] and in experiment [10] was over 10 µM each time.
